According to patent US7812031B2, “Pyrimidine derivatives as orexin receptor antagonists” (Sanofi-Aventis, priority 2004, dated 2010):

Tests used:
[1] = target: T1, human recombinant orexin-1 (hr-OX-1) receptor (Homo sapiens, UniProt O43613); assay: hr-125I-orexin-A radioligand competition binding, orexin-1 receptor; settings: displacement of 125I-orexin-A, CHO-hr-OX-1 plasmamembranes, 25° C., 60 minutes; read-out: Orex-1 IC50
T1 construct: expressed in transfected cells; host or cells: CHO (CHO-hr-OX-1 cells), purified plasma membrane fraction
T1 sequence (O43613 1-425): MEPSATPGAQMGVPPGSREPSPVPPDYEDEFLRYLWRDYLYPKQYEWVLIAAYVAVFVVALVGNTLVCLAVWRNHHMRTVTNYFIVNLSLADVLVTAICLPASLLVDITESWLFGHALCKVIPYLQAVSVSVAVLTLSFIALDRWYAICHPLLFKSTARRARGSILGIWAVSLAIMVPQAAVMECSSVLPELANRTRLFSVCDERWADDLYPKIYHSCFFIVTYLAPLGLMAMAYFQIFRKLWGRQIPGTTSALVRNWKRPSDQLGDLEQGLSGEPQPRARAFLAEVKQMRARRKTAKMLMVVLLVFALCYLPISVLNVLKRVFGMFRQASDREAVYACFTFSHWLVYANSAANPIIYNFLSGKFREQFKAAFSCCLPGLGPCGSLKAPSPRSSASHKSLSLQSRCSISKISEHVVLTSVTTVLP
Experimental: (§1) In vitro radioligand binding assays were used for determination of the affinities of the compounds for both the orexin-1 and orexin-2 receptors.
(§2) In the frame of hr-^125I-orexin-A radioligand competition (displacement) experiments a fixed concentration of hr-^125I-orexin-A is incubated with increasing concentrations of unlabeled test compound in the presence of highly purified plasmamembranes bearing either the human recombinant orexin-1 (hr-OX-1) or the human recombinant orexin-2 (hr-OX-2) receptors. Specific binding of hr-^125I-orexin-A to plasmamembranes is measured at each concentrations of the unlabeled compound and thus a competition curve is generated. The concentration of unlabeled compound displacing 50% of specific binding (IC50) is calculated. In case of competitive interaction the binding affinity constant of the unlabeled compound (K1) is calculated according to the Cheng-Prusoff equation (K1=IC50/(1+L*/KD). Affinity of unlabeled compound for the receptor is equal to 1/K1.
(§3) Culturing the Chinese hamster ovarian cells expressing human recombinant orexin-1 or orexin-2 receptor proteins (CHO-hr-OX-1 or CHO-hr-OX-2 cells) was carried out in cell culture medium (MEM medium, supplemented with 40 mg/l prolin, 20 mg/l gentamycin, 300 mg/l geneticin, 10% dialysed fetal calf serum).
(§4) Adherent cells were plated into Greiner flasks (175 cm^2). 4-6 days later culture medium was removed and cells were scarped in calcium- and magnesium-free phosphate buffered saline (PBS, 20 ml/flask). The cell suspension was centrifuged at 1,000 g for 5 minutes (4° C.). The resulting pellet was resuspended and homogenized with a teflon pestle (4° C.), then layered onto a discontinuous sucrose gradient and centrifuged at 105,000 g. Plasmamembrane fraction accumulated in the interface between 14 and 34% sucrose layers was separated and pelleted by a further centrifugation step at 105,000 g for 60 min (4° C.). The final pellet was resuspended in binding assay buffer and stored at −80° C. up to the day of radioligand binding experiment.
(§5) For ^125I-orexin-A competition binding studies, aliquots of cell membrane fractions containing either hr-orexin-1 or hr-orexin-2 receptors were incubated with ^125I-orexin-A in binding assay buffer at 25° C. for 60 minutes. Nonspecific binding was defined by 1 μM hr-orexin-A in both cases.
(§6) Test compounds were dissolved at a concentration of 1 mM in dimethylsulfoxide (DMSO). Serial dilution series were prepared from stock solutions (100% DMSO) with binding assay buffer in such a way that each samples contained a final concentration of 1% of DMSO in the receptor binding reaction mixture. After the incubation, samples were filtered through Whatman GF/C glass fibre filters using a SKATRON cell harvester, and the filters were washed with 5 ml of ice-cold buffer The radioactivity remained on the filter was counted in a gamma counter (Wallac Automatic Gamma Counter 1470 Wizard).

[2] = target: T2, human recombinant orexin-2 (hr-OX-2) receptor (Homo sapiens, UniProt O43614); assay: hr-125I-orexin-A radioligand competition binding, orexin-2 receptor; settings: displacement of 125I-orexin-A, CHO-hr-OX-2 plasmamembranes, 25° C., 60 minutes; read-out: Orex-2 IC50
T2 construct: expressed in transfected cells; host or cells: CHO (CHO-hr-OX-2 cells), purified plasma membrane fraction
T2 sequence (O43614 1-444): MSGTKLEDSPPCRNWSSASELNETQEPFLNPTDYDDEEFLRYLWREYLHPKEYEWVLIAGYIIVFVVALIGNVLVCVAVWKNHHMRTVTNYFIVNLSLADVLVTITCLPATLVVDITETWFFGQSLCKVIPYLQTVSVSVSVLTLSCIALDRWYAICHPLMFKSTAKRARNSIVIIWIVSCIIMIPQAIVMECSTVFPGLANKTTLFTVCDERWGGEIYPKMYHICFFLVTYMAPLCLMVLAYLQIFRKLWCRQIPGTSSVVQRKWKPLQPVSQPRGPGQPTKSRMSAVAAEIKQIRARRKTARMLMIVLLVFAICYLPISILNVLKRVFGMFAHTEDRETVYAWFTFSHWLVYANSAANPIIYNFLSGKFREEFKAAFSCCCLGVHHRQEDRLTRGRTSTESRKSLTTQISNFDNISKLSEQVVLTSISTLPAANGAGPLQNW
Experimental: as §1, §2, §3, §4, §5, §6

Row | Compound | melting point [°C] | IC50 [1] [nM] | IC50 [2] [nM]
1 | CN(CC(O)c1cccc(O)c1)C(=O)c1cnc(NCc2cccs2)nc1-c1ccccc1 (centres unmarked) (hydrate or solvate) [Example 17, 4-Phenyl-2-[(thiophen-2-ylmethyl)amino]pyrimidine-5-carboxylic acid [2-hydroxy-2-(3-hydroxyphenyl)ethyl]methylamide] | 85 to 87 | – | –
2 | CN(CC(O)c1cccc(OC(=O)C(C)(C)C)c1)C(=O)c1cnc(N(C)C)nc1-c1ccccc1Cl (centres unmarked) [2,2-Dimethylpropionic acid 3-{2-[(2-dimethylamino-4-(2-chlorophenyl)pyrimidine-5-carbonyl)methylamino]1-hydroxyethyl}phenyl ester] | – | 30 | 2900
3 | COc1ccccc1C(=O)Nc1cccc(C(O)CN(C)C(=O)c2cnc(N(C)C)nc2-c2ccccc2)c1 (centres unmarked) [2-Dimethylamino-4-phenylpyrimidin-5-carboxylic acid {2-hydroxy-2-[3-(2-methoxy-benzoylamino)phenyl]ethyl}methylamide] | – | 15 | 320
4 | CN(CC(O)c1cccc(OCc2ccccc2)c1)C(=O)c1cnc(N(C)C)nc1-c1ccc(Cl)c(Cl)c1 (centres unmarked) [Example 59, 2-Dimethylamino-4-(3,4-dichlorophenyl)pyrimidine-5-carboxylic acid [2-(3-benzyloxyphenyl)-2-hydroxyethyl]methylamide] | 68 to 70 | – | –

Other lines, results leading:

Row | melting point [°C] | IC50 [1] [nM] | IC50 [2] [nM] | Compound
5 | – | 11 | 6700 | CN(Cc1ccccc1)c1ncc(C(=O)N2CCCCC2C(O)c2ccccc2)c(-c2ccccc2)n1 (racemic)
6 | – | 22 | 5800 | Cc1ccccc1-c1nc(N(C)Cc2ccccc2)ncc1C(=O)N(C)CC(O)c1cccc(O)c1 (centres unmarked) [2-(Benzylmethylamino)-4-(2-methylphenyl)pyrimidine-5-carboxylic acid [2-hydroxy-2-(3-hydroxyphenyl)ethyl]methylamide]
7 | – | 30 | 3600 | CN(CC(O)c1cccc(OCc2ccccc2)c1)C(=O)c1cnc(N(C)C)nc1-c1ccccc1 (centres unmarked) [2-Dimethylamino-4-phenylpyrimidine-5-carboxylic acid [2-(3-benzyloxyphenyl)-2-hydroxyethyl]methylamide]
8 | – | 12 | 5400 | CC(C(O)c1ccccc1)N(C)C(=O)c1cnc(NCc2ccccn2)nc1-c1ccccc1 (centres unmarked) [4-Phenyl-2-[(pyridin-2-ylmethyl)amino]pyrimidin-5-carboxylic acid (2-hydroxy-1-methyl-2-phenylethyl)methylamide]
